Measured values: ChEMBL document CHEMBL3797178, “Synthesis, antimycobacterial and antibacterial activity of 1-(6-amino-3,5-difluoropyridin-2-yl)fluoroquinolone derivatives containing an oxime functional moiety” (2016)
≈ marks a conversion by molar mass, not a printed value.

Experiments:
Assay type in all cases: functional
[1] = test system: Mycobacterium tuberculosis; assay: Antimycobacterial activity against Mycobacterium tuberculosis H37Rv ATCC 27294 after 3 days by microplate Alamar Blue assay; conditions: H37Rv ATCC 27294, 72 h
Escherichia coli [2] = assay: Antibacterial activity against Escherichia coli ATCC 25922 after 18 to 24 hrs by CLSI M100-S11 method
Escherichia coli [3] = assay: Antibacterial activity against extended-spectrum beta-lactamase-producing Escherichia coli 14-1 after 18 to 24 hrs by CLSI M100-S11 method
Escherichia coli [4] = assay: Antibacterial activity against extended-spectrum beta-lactamase-producing Escherichia coli 14-2 after 18 to 24 hrs by CLSI M100-S11 method
Escherichia coli [5] = assay: Antibacterial activity against Escherichia coli 14-1 after 18 to 24 hrs by CLSI M100-S11 method
Escherichia coli [6] = assay: Antibacterial activity against Escherichia coli 14-2 after 18 to 24 hrs by CLSI M100-S11 method
Klebsiella pneumoniae [7] = assay: Antibacterial activity against extended-spectrum beta-lactamase-producing Klebsiella pneumoniae 14-17 after 18 to 24 hrs by CLSI M100-S11 method
Klebsiella pneumoniae [8] = assay: Antibacterial activity against extended-spectrum beta-lactamase-producing Klebsiella pneumoniae 14-18 after 18 to 24 hrs by CLSI M100-S11 method
Klebsiella pneumoniae [9] = assay: Antibacterial activity against extended-spectrum beta-lactamase-producing Klebsiella pneumoniae 14-19 after 18 to 24 hrs by CLSI M100-S11 method
Klebsiella pneumoniae [10] = assay: Antibacterial activity against Klebsiella pneumoniae 14-1 after 18 to 24 hrs by CLSI M100-S11 method
Klebsiella pneumoniae [11] = assay: Antibacterial activity against Klebsiella pneumoniae 14-2 after 18 to 24 hrs by CLSI M100-S11 method
Klebsiella pneumoniae [12] = assay: Antibacterial activity against Klebsiella pneumoniae 14-3 after 18 to 24 hrs by CLSI M100-S11 method
Klebsiella pneumoniae [13] = assay: Antibacterial activity against Klebsiella pneumoniae 14-4 after 18 to 24 hrs by CLSI M100-S11 method
Pseudomonas aeruginosa [14] = assay: Antibacterial activity against Pseudomonas aeruginosa ATCC 27853 after 18 to 24 hrs by CLSI M100-S11 method
Pseudomonas aeruginosa [15] = assay: Antibacterial activity against Pseudomonas aeruginosa 14-9 after 18 to 24 hrs by CLSI M100-S11 method
Pseudomonas aeruginosa [16] = assay: Antibacterial activity against Pseudomonas aeruginosa 14-14 after 18 to 24 hrs by CLSI M100-S11 method
Pseudomonas aeruginosa [17] = assay: Antibacterial activity against Pseudomonas aeruginosa 14-15 after 18 to 24 hrs by CLSI M100-S11 method
Pseudomonas aeruginosa [18] = assay: Antibacterial activity against Pseudomonas aeruginosa 14-16 after 18 to 24 hrs by CLSI M100-S11 method
Pseudomonas aeruginosa [19] = assay: Antibacterial activity against Pseudomonas aeruginosa 14-19 after 18 to 24 hrs by CLSI M100-S11 method
Staphylococcus aureus [20] = assay: Antibacterial activity against Staphylococcus aureus CMCC 26003 after 18 to 24 hrs by CLSI M100-S11 method
Staphylococcus aureus [21] = assay: Antibacterial activity against methicillin-sensitive Staphylococcus aureus 14-2 after 18 to 24 hrs by CLSI M100-S11 method
Staphylococcus aureus [22] = assay: Antibacterial activity against methicillin-sensitive Staphylococcus aureus 14-3 after 18 to 24 hrs by CLSI M100-S11 method
Staphylococcus aureus [23] = assay: Antibacterial activity against methicillin-sensitive Staphylococcus aureus 14-4 after 18 to 24 hrs by CLSI M100-S11 method
Staphylococcus aureus [24] = assay: Antibacterial activity against methicillin-resistant Staphylococcus aureus 14-4 after 18 to 24 hrs by CLSI M100-S11 method
Staphylococcus aureus [25] = assay: Antibacterial activity against methicillin-resistant Staphylococcus aureus 14-5 after 18 to 24 hrs by CLSI M100-S11 method
[26] = test system: Staphylococcus epidermidis; assay: Antibacterial activity against methicillin-sensitive Staphylococcus epidermidis 14-2 after 18 to 24 hrs by CLSI M100-S11 method
[27] = test system: Staphylococcus epidermidis; assay: Antibacterial activity against methicillin-sensitive Staphylococcus epidermidis 14-4 after 18 to 24 hrs by CLSI M100-S11 method
[28] = test system: Staphylococcus epidermidis; assay: Antibacterial activity against methicillin-sensitive Staphylococcus epidermidis 14-6 after 18 to 24 hrs by CLSI M100-S11 method
[29] = test system: Staphylococcus epidermidis; assay: Antibacterial activity against methicillin-resistant Staphylococcus epidermidis 14-22 after 18 to 24 hrs by CLSI M100-S11 method
[30] = test system: Staphylococcus epidermidis; assay: Antibacterial activity against methicillin-resistant Staphylococcus epidermidis 14-37 after 18 to 24 hrs by CLSI M100-S11 method
[31] = test system: Staphylococcus epidermidis; assay: Antibacterial activity against methicillin-resistant Staphylococcus epidermidis 14-39 after 18 to 24 hrs by CLSI M100-S11 method
Streptococcus pneumoniae = assay: Antibacterial activity against Streptococcus pneumoniae ATCC 19615 after 18 to 24 hrs by CLSI M100-S11 method
Enterococcus faecium [32] = assay: Antibacterial activity against Enterococcus faecium 14-1 after 18 to 24 hrs by CLSI M100-S11 method
Enterococcus faecium [33] = assay: Antibacterial activity against Enterococcus faecium 14-2 after 18 to 24 hrs by CLSI M100-S11 method
Enterococcus faecalis [34] = assay: Antibacterial activity against Enterococcus faecalis 14-1 after 18 to 24 hrs by CLSI M100-S11 method
Enterococcus faecalis [35] = assay: Antibacterial activity against Enterococcus faecalis 14-2 after 18 to 24 hrs by CLSI M100-S11 method
Enterococcus faecalis [36] = assay: Antibacterial activity against Enterococcus faecalis 14-3 after 18 to 24 hrs by CLSI M100-S11 method

CO/N=C1\CN(c2c(F)cc3c(=O)c(C(=O)O)cn(-c4nc(N)c(F)cc4F)c3c2Cl)CC1CN (centres undefined)
MIC [1]: 30.5 µg/mL (≈ 59.7 µM)
MIC (Escherichia coli [2]): 0.125 µg/mL (≈ 0.245 µM)
MIC (Escherichia coli [3]): 2 µg/mL (≈ 3.91 µM)
MIC (Escherichia coli [4]): 64 µg/mL (≈ 125 µM)
MIC (Escherichia coli [5]): 64 µg/mL (≈ 125 µM)
MIC (Escherichia coli [6]): 64 µg/mL (≈ 125 µM)
MIC (Klebsiella pneumoniae [7]): 32 µg/mL (≈ 62.6 µM)
MIC (Klebsiella pneumoniae [8]): 16 µg/mL (≈ 31.3 µM)
MIC (Klebsiella pneumoniae [9]): 128 µg/mL (≈ 251 µM)
MIC (Klebsiella pneumoniae [10]): 64 µg/mL (≈ 125 µM)
MIC (Klebsiella pneumoniae [11]): > 128 µg/mL
MIC (Klebsiella pneumoniae [12]): 128 µg/mL (≈ 251 µM)
MIC (Klebsiella pneumoniae [13]): 128 µg/mL (≈ 251 µM)
MIC (Pseudomonas aeruginosa [14]): 4 µg/mL (≈ 7.83 µM)
MIC (Pseudomonas aeruginosa [15]): 8 µg/mL (≈ 15.7 µM)
MIC (Pseudomonas aeruginosa [16]): 8 µg/mL (≈ 15.7 µM)
MIC (Pseudomonas aeruginosa [17]): 8 µg/mL (≈ 15.7 µM)
MIC (Pseudomonas aeruginosa [18]): 8 µg/mL (≈ 15.7 µM)
MIC (Pseudomonas aeruginosa [19]): 8 µg/mL (≈ 15.7 µM)
MIC (Staphylococcus aureus [20]): 0.03 µg/mL (≈ 0.0587 µM)
MIC (Staphylococcus aureus [21]): 0.06 µg/mL (≈ 0.117 µM)
MIC (Staphylococcus aureus [22]): 0.125 µg/mL (≈ 0.245 µM)
MIC (Staphylococcus aureus [23]): 0.25 µg/mL (≈ 0.489 µM)
MIC (Staphylococcus aureus [24]): 128 µg/mL (≈ 251 µM)
MIC (Staphylococcus aureus [25]): 128 µg/mL (≈ 251 µM)
MIC [26]: 64 µg/mL (≈ 125 µM)
MIC [27]: 32 µg/mL (≈ 62.6 µM)
MIC [28]: 64 µg/mL (≈ 125 µM)
MIC [29]: 64 µg/mL (≈ 125 µM)
MIC [30]: 64 µg/mL (≈ 125 µM)
MIC [31]: 32 µg/mL (≈ 62.6 µM)
MIC (Streptococcus pneumoniae): 16 µg/mL (≈ 31.3 µM)
MIC (Enterococcus faecium [32]): > 128 µg/mL
MIC (Enterococcus faecium [33]): 8 µg/mL (≈ 15.7 µM)
MIC (Enterococcus faecalis [34]): 16 µg/mL (≈ 31.3 µM)
MIC (Enterococcus faecalis [35]): 64 µg/mL (≈ 125 µM)
MIC (Enterococcus faecalis [36]): 32 µg/mL (≈ 62.6 µM)

CO/N=C1\CCN(c2c(F)cc3c(=O)c(C(=O)O)cn(-c4nc(N)c(F)cc4F)c3c2Cl)CC1N (centres undefined)
MIC [1]: > 32 µg/mL
MIC (Escherichia coli [2]): 1 µg/mL (≈ 1.96 µM)
MIC (Escherichia coli [3]): 64 µg/mL (≈ 125 µM)
MIC (Escherichia coli [4]): > 128 µg/mL
MIC (Escherichia coli [5]): > 128 µg/mL
MIC (Escherichia coli [6]): > 128 µg/mL
MIC (Klebsiella pneumoniae [7]): > 128 µg/mL
MIC (Klebsiella pneumoniae [8]): 128 µg/mL (≈ 251 µM)
MIC (Klebsiella pneumoniae [9]): > 128 µg/mL
MIC (Klebsiella pneumoniae [10]): > 128 µg/mL
MIC (Klebsiella pneumoniae [11]): > 128 µg/mL
MIC (Klebsiella pneumoniae [12]): > 128 µg/mL
MIC (Klebsiella pneumoniae [13]): > 128 µg/mL
MIC (Pseudomonas aeruginosa [14]): 16 µg/mL (≈ 31.3 µM)
MIC (Pseudomonas aeruginosa [15]): 64 µg/mL (≈ 125 µM)
MIC (Pseudomonas aeruginosa [16]): 64 µg/mL (≈ 125 µM)
MIC (Pseudomonas aeruginosa [17]): 64 µg/mL (≈ 125 µM)
MIC (Pseudomonas aeruginosa [18]): 128 µg/mL (≈ 251 µM)
MIC (Pseudomonas aeruginosa [19]): 128 µg/mL (≈ 251 µM)
MIC (Staphylococcus aureus [20]): 0.5 µg/mL (≈ 0.979 µM)
MIC (Staphylococcus aureus [21]): 0.5 µg/mL (≈ 0.979 µM)
MIC (Staphylococcus aureus [22]): 0.25 µg/mL (≈ 0.489 µM)
MIC (Staphylococcus aureus [23]): 0.5 µg/mL (≈ 0.979 µM)
MIC (Staphylococcus aureus [24]): > 128 µg/mL
MIC (Staphylococcus aureus [25]): > 128 µg/mL
MIC [26]: > 128 µg/mL
MIC [27]: 128 µg/mL (≈ 251 µM)
MIC [28]: 128 µg/mL (≈ 251 µM)
MIC [29]: > 128 µg/mL
MIC [30]: > 128 µg/mL
MIC [31]: > 128 µg/mL
MIC (Streptococcus pneumoniae): 64 µg/mL (≈ 125 µM)
MIC (Enterococcus faecium [32]): > 128 µg/mL
MIC (Enterococcus faecium [33]): 16 µg/mL (≈ 31.3 µM)
MIC (Enterococcus faecalis [34]): > 128 µg/mL
MIC (Enterococcus faecalis [35]): > 128 µg/mL
MIC (Enterococcus faecalis [36]): > 128 µg/mL
